Data reported in the NIST ThermoML archive (doi:10.1021/acs.jced.9b00396).
Numbers after ± are expanded uncertainties.

Experiment: refractive index (Na D-line) (dimensionless)
Conditions: 298.15 K; 100 kPa; Liquid; Standard Abbe refractometry

| refractive index | SMILES |
| --- | --- |
| 1.39852 ± 0.00037 | CC(=O)OCCC(C)C [3-methylbutyl ethanoate] |
| 1.53876 ± 0.00037 | OCc1ccccc1 [benzenemethanol] |
| 1.47713 ± 0.00033 | C[S+](C)[O-] [dimethyl sulfoxide] |
